Measurements as given in patent publication EP4700027A1, “CRYSTALLINE FORM OF NITROGEN-CONTAINING TETRACYCLIC COMPOUND AND PREPARATION METHOD THEREFOR” (Jiangsu Hengrui Pharmaceuticals Co., Ltd., priority 2023, dated 2024).
Each block holds one compound with its values, some of them ahead of it.

Key:
MIA PaCa-2 cells = assay: MIA PaCa-2 cell proliferation assay (CellTiter-Glo); assay type: cell-based; settings: Homo sapiens; inhibitory activity against MIA PaCa-2 cell proliferation, 72 h incubation
Method: The inhibitory activity of the compound of the present disclosure against MIA PaCa-2 cell proliferation was measured. Below is a brief description of the experimental method: MIA PaCa-2 cells (ATCC, CRL-1420) were cultured in DMEM/HIGH GLUCOSE medium (GE, SH30243.01) containing 10% fetal bovine serum (Corning, 35-076-CV) and 2.5% horse serum (Beyotime Biological Tech., C0262) (i.e., complete medium). On the first day of the experiment, MIA PaCa-2 cells were seeded into a 96-well plate at a density of 500 cells/well using complete medium, with 90 µL of cell suspension per well, and the plate was incubated overnight in a 5% CO2 cell incubator at 37 °C. On the second day, the test compound, prepared in complete medium and serially diluted, was added at 10 µL/well. The final concentrations of the compound were 9 concentration points obtained by a 5-fold serial dilution from 10 µM. A blank control containing 0.5% DMSO was set up. The plate was incubated for 72 h in a 5% CO2 cell incubator at 37 °C. […] After the plate was left to stand at room temperature for 10 min, the luminescence signal values were measured using a multifunctional microplate reader (PerkinElmer, EnVision2015). The IC50 value for the inhibitory activity of the compound was calculated using Graphpad Prism software. […]

H358 cells = assay: H358 cell proliferation assay (CellTiter-Glo); assay type: cell-based; settings: Homo sapiens, NCI-H358; inhibitory activity against H358 cell proliferation, 120 h incubation
Method: The inhibitory activity of the compound of the present disclosure against H358 cell proliferation was measured. Below is a brief description of the experimental method: H358 cells (ATCC, CRL-5807) were cultured in RPMI1640 medium (Hyclone, SH30809.01) containing 10% fetal bovine serum (Corning, 35-076-CV) (i.e., complete medium). On the first day of the experiment, H358 cells were seeded into a 96-well plate at a density of 1200 cells/well using complete medium, with 100 µL of cell suspension per well, and the plate was incubated overnight in a 5% CO2 cell incubator at 37 °C. On the second day, the test compound, prepared in complete medium and serially diluted, was added at 10 µL/well. The final concentrations of the compound were 9 concentration points obtained by a 5-fold serial dilution from 10 µM. A blank control containing 0.5% DMSO was set up. The plate was incubated for 120 h in a 5% CO2 cell incubator at 37 °C. On the seventh day, the 96-well cell plate was removed from the incubator, and Cell Titer-Glo® Luminescent Cell Viability Assay (Promega, G7573) was added at 50 µL/well. After the plate was left to stand at room temperature for 10 min, the luminescence signal values were measured using a multifunctional microplate reader (PerkinElmer, EnVision® 2105), and the IC50 value for the inhibitory activity of the compound was calculated using Graphpad Prism software. Table 1. […]

[1] = Influencing factor stability study on crystal forms (light, high temperature, high humidity, 30 days); assay type: physicochemical
[2] = Dynamic vapor sorption (DVS) hygroscopicity testing; assay type: physicochemical; settings: for desorption process of the sample versus its adsorption process: humidity changing from 0% to 95% RH
Source text: According to the description of hygroscopicity characteristics and the definitions of hygroscopic weight gains in "General Rule 9103, Guidelines for Hygroscopicity Trials for Pharmaceuticals" in the Chinese Pharmacopoeia, Volume IV, 2015 Edition, • deliquescent: sufficient water is absorbed to form a liquid; • extremely hygroscopic: the hygroscopic weight gain is not less than 15%; • hygroscopic: the hygroscopic weight gain is less than 15% but not less than 2%; • slightly hygroscopic: the hygroscopic weight gain is less than 2% but not less than 0.2%; nonhygroscopic or practically nonhygroscopic: the hygroscopic weight gain is less than 0.2%.
DVS refers to dynamic vapor sorption: The analysis was performed using SMS DVS Advantage; at 25 °C, the humidity was changed as follows: 50%-95%-0%-95%-50%, in steps of 10% (5% for the last step) (specific humidity ranges are shown in corresponding patterns, and those listed here were used in most cases); the criterion was dm/dt being not greater than 0.002%.

[3] = Light exposure (4500 Lux), 7 days
[4] = Light exposure (4500 Lux), 14 days
[5] = Light exposure (4500 Lux), 30 days
[6] = accelerated experimental conditions (70% RH)
[7] = normal storage conditions (25 °C and 60% RH)

IC50 (MIA PaCa-2 cells): 0.28 nM
IC50 (H358 cells): 0.74 nM
SMILES: C=CC(=O)N1CCN2C(=O)c3cc(F)c(-c4ccc(F)c5sc(N)c(C#N)c45)c4c(Cl)nn(c34)CC[C@H]2C1 (atropisomer, axis not shown) [Compound 1, (S)-4-((S)-10-acryloyl-4-chloro-2-fluoro-14-oxo-8,8a,9,10,11,12-hexahydro-7H,14H-pyrazino[1',2':5,6][1,5]diazocino[3,2,1-hi]indazol-3-yl)-2-amino-7-fluorobenzo[b]thiophene-3-carbonitrile]

Color and state ([1]; 40 °C, 7 days): Off-white solid
Crystal form ([1]; 40 °C, 7 days): Did not change
Purity (%) ([1]; 40 °C, 7 days): 98.2%
Color and state ([1]; 40 °C, 14 days): Off-white solid
Crystal form ([1]; 40 °C, 14 days): Did not change
Purity (%) ([1]; 40 °C, 14 days): 97.8%
Color and state ([1]; 40 °C, 30 days): Off-white solid
Crystal form ([1]; 40 °C, 30 days): Did not change
Purity (%) ([1]; 40 °C, 30 days): 97.7%
Color and state ([1]; 60 °C, 7 days): Off-white solid
Crystal form ([1]; 60 °C, 7 days): Did not change
Purity (%) ([1]; 60 °C, 7 days): 98.3%
Color and state ([1]; 60 °C, 14 days): Off-white solid
Crystal form ([1]; 60 °C, 14 days): Did not change
Purity (%) ([1]; 60 °C, 14 days): 98.1%
Color and state ([1]; 60 °C, 30 days): Off-white solid
Crystal form ([1]; 60 °C, 30 days): Did not change
Purity (%) ([1]; 60 °C, 30 days): 98.1%
Color and state ([1]; 75% RH, 7 days): Off-white solid
Crystal form ([1]; 75% RH, 7 days): Did not change
Purity (%) ([1]; 75% RH, 7 days): 98.5%
Color and state ([1]; 75% RH, 14 days): Off-white solid
Crystal form ([1]; 75% RH, 14 days): Did not change
Purity (%) ([1]; 75% RH, 14 days): 98.5%
Color and state ([1]; 75% RH, 30 days): Off-white solid
Crystal form ([1]; 75% RH, 30 days): Did not change
Purity (%) ([1]; 75% RH, 30 days): 98.5%
Color and state ([1]; 92.5% RH, 7 days): Off-white solid
Crystal form ([1]; 92.5% RH, 7 days): Did not change
Purity (%) ([1]; 92.5% RH, 7 days): 98.5%
Color and state ([1]; 92.5% RH, 14 days): Off-white solid
Crystal form ([1]; 92.5% RH, 14 days): Did not change
Purity (%) ([1]; 92.5% RH, 14 days): 98.5%
Color and state ([1]; 92.5% RH, 30 days): Off-white solid
Crystal form ([1]; 92.5% RH, 30 days): Did not change
Purity (%) ([1]; 92.5% RH, 30 days): 98.5%
Color and state ([1]; Initial, 0 days): Off-white solid
Crystal form ([1]; Initial, 0 days): Crystal form G
Purity (%) ([1]; Initial, 0 days): 98.5%
Color and state [1, 3]: Off-white solid
Crystal form [1, 3]: Did not change
Purity (%) [1, 3]: 98.5%
Color and state [1, 4]: Off-white solid
Crystal form [1, 4]: Did not change
Purity (%) [1, 4]: 98.4%
Color and state [1, 5]: Off-white solid
Crystal form [1, 5]: Did not change
Purity (%) [1, 5]: 98.3%
hygroscopic weight gain [2, 6]: about 1.21%
crystal form re-identified after DVS testing [2]: did not change
hygroscopic weight gain ([2]; extreme conditions (90% RH)): about 1.60%
desorption process of the sample versus its adsorption process [2]: substantially overlapped
hygroscopic weight gain [2, 7]: about 1.04%
SMILES: C=CC(=O)N1CCN2C(=O)c3cc(F)c(-c4ccc(F)c5sc(N)c(C#N)c45)c4c(Cl)nn(c34)CC[C@H]2C1 [crystal form G]

Color and state ([1]; 40 °C, 7 days): Off-white solid
Crystal form ([1]; 40 °C, 7 days): Did not change
Purity (%) ([1]; 40 °C, 7 days): 99.1%
Color and state ([1]; 40 °C, 14 days): Off-white solid
Crystal form ([1]; 40 °C, 14 days): Did not change
Purity (%) ([1]; 40 °C, 14 days): 99.1%
Color and state ([1]; 40 °C, 30 days): Off-white solid
Crystal form ([1]; 40 °C, 30 days): Did not change
Purity (%) ([1]; 40 °C, 30 days): 98.9%
Color and state ([1]; 60 °C, 7 days): Off-white solid
Crystal form ([1]; 60 °C, 7 days): Did not change
Purity (%) ([1]; 60 °C, 7 days): 99.1%
Color and state ([1]; 60 °C, 14 days): Off-white solid
Crystal form ([1]; 60 °C, 14 days): Did not change
Purity (%) ([1]; 60 °C, 14 days): 99.1%
Color and state ([1]; 60 °C, 30 days): Off-white solid
Crystal form ([1]; 60 °C, 30 days): Did not change
Purity (%) ([1]; 60 °C, 30 days): 99.0%
Color and state ([1]; 75% RH, 7 days): Off-white solid
Crystal form ([1]; 75% RH, 7 days): Did not change
Purity (%) ([1]; 75% RH, 7 days): 99.2%
Color and state ([1]; 75% RH, 14 days): Off-white solid
Crystal form ([1]; 75% RH, 14 days): Did not change
Purity (%) ([1]; 75% RH, 14 days): 99.2%
Color and state ([1]; 75% RH, 30 days): Off-white solid
Crystal form ([1]; 75% RH, 30 days): Did not change
Purity (%) ([1]; 75% RH, 30 days): 99.2%
Color and state ([1]; 92.5% RH, 7 days): Off-white solid
Crystal form ([1]; 92.5% RH, 7 days): Did not change
Purity (%) ([1]; 92.5% RH, 7 days): 99.2%
Color and state ([1]; 92.5% RH, 14 days): Off-white solid
Crystal form ([1]; 92.5% RH, 14 days): Did not change
Purity (%) ([1]; 92.5% RH, 14 days): 99.2%
Color and state ([1]; 92.5% RH, 30 days): Off-white solid
Crystal form ([1]; 92.5% RH, 30 days): Did not change
Purity (%) ([1]; 92.5% RH, 30 days): 99.2%
Color and state ([1]; Initial, 0 days): Off-white solid
Crystal form ([1]; Initial, 0 days): Crystal form M
Purity (%) ([1]; Initial, 0 days): 99.2%
Color and state [1, 3]: Off-white solid
Crystal form [1, 3]: Did not change
Purity (%) [1, 3]: 99.2%
Color and state [1, 4]: Off-white solid
Crystal form [1, 4]: Did not change
Purity (%) [1, 4]: 99.2%
Color and state [1, 5]: Off-white solid
Crystal form [1, 5]: Did not change
Purity (%) [1, 5]: 99.0%
hygroscopic weight gain [2, 6]: about 0.55%
crystal form re-identified after DVS testing [2]: did not change
hygroscopic weight gain ([2]; extreme conditions (90% RH)): about 0.73%
desorption process of the sample versus its adsorption process [2]: substantially overlapped
hygroscopic weight gain [2, 7]: about 0.48%
SMILES: C=CC(=O)N1CCN2C(=O)c3cc(F)c(-c4ccc(F)c5sc(N)c(C#N)c45)c4c(Cl)nn(c34)CC[C@H]2C1 [crystal form M]

Color and state ([1]; 60 °C, 30 days): Off-white solid
Crystal form ([1]; 60 °C, 30 days): Did not change
Purity (%) ([1]; 60 °C, 30 days): 98.9%
Color and state ([1]; 75% RH, 7 days): Off-white solid
Crystal form ([1]; 75% RH, 7 days): Did not change
Purity (%) ([1]; 75% RH, 7 days): 99.2%
Color and state ([1]; 75% RH, 14 days): Off-white solid
Crystal form ([1]; 75% RH, 14 days): Did not change
Purity (%) ([1]; 75% RH, 14 days): 99.1%
Color and state ([1]; 75% RH, 30 days): Off-white solid
Crystal form ([1]; 75% RH, 30 days): Did not change
Purity (%) ([1]; 75% RH, 30 days): 99.1%
hygroscopic weight gain [2, 6]: about 3.06%
crystal form re-identified after DVS testing [2]: did not change
hygroscopic weight gain ([2]; extreme conditions (90% RH)): about 3.18%
desorption process of the sample versus its adsorption process [2]: substantially overlapped
hygroscopic weight gain [2, 7]: about 3.00%
SMILES: C=CC(=O)N1CCN2C(=O)c3cc(F)c(-c4ccc(F)c5sc(N)c(C#N)c45)c4c(Cl)nn(c34)CC[C@H]2C1 [crystal form N]
